Experimental data from paper PMC8151276, “An Integrated Approach toward NanoBRET Tracers for Analysis of GPCR Ligand Engagement” (Molecules, 2021).

Experiments:
CCR7 = biological target: T1, CCR7 (Homo sapiens, UniProt P32248); experiment: NanoBRET screen HiBiT-CCR7 in HEK293; format: binding
T1 construct: purchased Promega (in-house HiBiT-GPCR construct library, NanoBRET)
T1 sequence (P32248 25-378): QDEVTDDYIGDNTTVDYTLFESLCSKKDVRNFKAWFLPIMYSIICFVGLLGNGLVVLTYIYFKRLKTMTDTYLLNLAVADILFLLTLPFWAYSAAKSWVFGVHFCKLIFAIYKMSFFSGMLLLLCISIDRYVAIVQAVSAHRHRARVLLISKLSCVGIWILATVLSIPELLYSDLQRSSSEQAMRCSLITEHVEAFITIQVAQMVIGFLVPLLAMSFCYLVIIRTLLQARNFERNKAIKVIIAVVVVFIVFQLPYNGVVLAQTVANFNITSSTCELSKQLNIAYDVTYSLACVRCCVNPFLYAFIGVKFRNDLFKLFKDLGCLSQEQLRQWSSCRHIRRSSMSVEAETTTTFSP
Experimental: (§1) Each tracer candidate was screened across the entire library of HiBiT-GPCR constructs using NanoBRET as the detection modality. As depicted in Figure 4A, the specificity of interactions was evaluated through decrease in BRET due to competitive displacement of a bound tracer by excess parental compound. Each tracer was analyzed for binding to each HiBiT-GPCR fusion in the absence and in the presence of competing parental compound. Briefly, HEK293 cells were transfected with HiBiT-GPCR constructs diluted into promoterless DNA to reduce expression and maximize translocation to the cell surface. Each tracer candidate was then screened at concentrations of 1 μM and 0.1 μM across cells expressing these fusions. Cells were treated for 1.5 h with tracer either alone or in the presence of 20 μM competing parental compound (i.e., control). BRET was measured upon addition of purified LgBiT and subsequent complementation with HiBiT genetically fused to a GPCR. The specificity of interactions was assessed through a decrease in BRET signal due to competitive displacement of the bound tracer. To further gauge the robustness of these interactions, the fold response over the control (i.e., BRETtracer/BRETcontrol) was calculated. We chose a 1.5-fold response, which translates to ≥7-fold signal over noise as the minimal threshold required to score an interaction as positive. […]. Below we highlight the screening results obtained for our exemplary fluorescent tracers based on Clozapine, Amitriptyline and AZD1283.
(§2) HiBiT-GPCR DNA constructs were diluted in 10 mM Tris pH 8 to a final concentration of 0.01 μg/μL, arrayed in 96-well plates and stored at −20 °C. For transfection, HEK293 cells were suspended in Opti-MEM (without phenol red) supplemented with 2% fetal bovine serum (Seradigm) and 100 units/mL penicillin–streptomycin (Gibco) at a final concentration of 220,000 cells/mL and dispensed into white 96-well plates at 90 μL/well. Subsequent transfections and screens were carried using an Agilent Bravo Automated Liquid Handling Platform. First, the 96-well HiBiT DNA arrays were diluted 25-fold in Opti-MEM (without serum or phenol red) to a final concentration of 0.0004 μg/μL and 20 μL of the diluted DNAs were transferred into new 96-well plates. Next, promoterless carrier DNA (1 μg/μL) was diluted 25-fold (0.04 μg/μL) and then dispensed into the diluted arrays at 20 μL/well. Following brief mixing, Viafect transfection reagent (Promega) diluted 16-fold into Opti-MEM was dispensed into the plates at 40 μL/well. After mixing by pipetting, plates were incubated for 10 min on the pipetting station deck. The DNA-transfection reagent complexes were then added to plates containing cells. To facilitate the screen, 10 μL of DNA-transfection reagent complexes were added in duplicates to the top 4 and bottom 4 rows, resulting in two identical 48-well arrays per plate. Plates with transfected cells were incubated for 18–20 h at 37 °C/5% CO2. A screen of each tracer across the entire library using two different concentrations requires duplicate plates of transfected cells. Depending on the number of tracers being screened, transfections can be scaled up using the same ratios. The next day, for each tracer, four 20× screening solutions in tracer dilution buffer (Promega) were prepared: two duplicates at final concentration of 20 μM and two duplicates at a final concentration of 2 μM. A competing unmodified compound was added to one of each duplicate at a final concentration of 400 μM. The four resulting solutions were diluted 4-fold in Opti-MEM without serum or phenol red to generate 5× solutions (5 µM and 0.5 µM tracer +/− 100 μM competing compound). To screen the library, a BioTek MultiFlo FX liquid dispenser was used to dispense 22.5 µL of tracer solution to the top 4 rows and 22.5 µL tracer + competing compound solution to the 4 bottom rows. Plates were briefly mixed on an orbital shaker and incubated for 1.5 h at room temperature. […]

FZD4 = biological target: T2, FZD4 (Homo sapiens, UniProt Q9ULV1); experiment: NanoBRET screen HiBiT-FZD4 in HEK293; format: binding
T2 construct: purchased Promega (in-house HiBiT-GPCR construct library, NanoBRET)
T2 sequence (Q9ULV1 37-537): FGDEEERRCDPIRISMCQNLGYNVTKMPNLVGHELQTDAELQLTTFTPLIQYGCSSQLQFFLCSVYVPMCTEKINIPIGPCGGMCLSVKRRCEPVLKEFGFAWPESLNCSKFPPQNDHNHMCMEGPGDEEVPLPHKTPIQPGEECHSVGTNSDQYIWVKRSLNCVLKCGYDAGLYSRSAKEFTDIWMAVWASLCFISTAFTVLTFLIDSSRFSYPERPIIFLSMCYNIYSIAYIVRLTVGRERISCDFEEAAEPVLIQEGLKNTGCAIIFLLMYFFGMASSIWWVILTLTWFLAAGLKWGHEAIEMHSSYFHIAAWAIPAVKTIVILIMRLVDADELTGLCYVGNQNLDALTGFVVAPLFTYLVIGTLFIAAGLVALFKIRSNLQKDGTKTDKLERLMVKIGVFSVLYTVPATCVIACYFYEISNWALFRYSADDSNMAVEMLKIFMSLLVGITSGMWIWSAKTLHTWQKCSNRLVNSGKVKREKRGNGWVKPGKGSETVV
Experimental: as §1, §2

For `COc1ccccc1N1CCN(CCCCN2C(=O)c3ccc(CNC(=O)CCOCCOCCOCCOCCNC(=O)CCc4ccc5n4[B-](F)(F)[N+]4=C(c6ccc[nH]6)C=CC4=C5)cc3C2=O)CC1` [NAN-190-2-NB590], the “NanoBRET Fold Response” value (CCR7; CCR7, tracer 0.1μM) was 0.97, the “NanoBRET Fold Response” value (CCR7; CCR7, tracer 1μM) was 0.99 and the “NanoBRET Fold Response” value (FZD4; FZD4, tracer 0.1μM) was 1.03. The “NanoBRET Fold Response” value (FZD4; FZD4, tracer 1μM) was 1.08.

`O=C(CCOCCOCCOCCOCCNC(=O)CCc1ccc2n1[B-](F)(F)[N+]1=C(c3ccc[nH]3)C=CC1=C2)NCCCN1CCN(C2=Nc3ccccc3Oc3ccc(Cl)cc32)CC1` [Loxapine-a-2-NB590] was tested, and the “NanoBRET Fold Response” value (CCR7; CCR7, tracer 0.1μM) was 1.00, the “NanoBRET Fold Response” value (CCR7; CCR7, tracer 1μM) was 1.11 and the “NanoBRET Fold Response” value (FZD4; FZD4, tracer 0.1μM) was 0.98. For the same compound, the “NanoBRET Fold Response” value (FZD4; FZD4, tracer 1μM) was 0.89.

In the case of `CN(CCC=C1c2ccccc2CCc2ccccc21)C(=O)CCOCCOCCOCCOCCNC(=O)CCc1ccc2n1[B-](F)(F)[N+]1=C(c3ccc[nH]3)C=CC1=C2` [Amitriptyline-e-2-NB590], the “NanoBRET Fold Response” value (CCR7; tracer at 1μM) is reported as 1.03 and the “NanoBRET Fold Response” value (FZD4; tracer at 1μM) is reported as 0.97.

With `CCCn1c(=O)c2[nH]c(-c3ccc(OCC(=O)NCCNC(=O)CCOCCNC(=O)c4ccc(CNC(=O)CCc5ccc6n5[B-](F)(F)[N+]5=C(c7ccc[nH]7)C=CC5=C6)cc4)cc3)nc2n(CCC)c1=O` [XAC-3-NB590] the “NanoBRET Fold Response” value (CCR7; CCR7, tracer 0.1μM) was 0.99, the “NanoBRET Fold Response” value (CCR7; CCR7, tracer 1μM) was 1.04 and the “NanoBRET Fold Response” value (FZD4; FZD4, tracer 0.1μM) was 1.15. The “NanoBRET Fold Response” value (FZD4; FZD4, tracer 1μM) was 1.12.

For `CN(C)CCC=C1c2ccccc2CCc2ccc(C(=O)NCCNC(=O)CCOCCOCCOCCOCCNC(=O)CCc3ccc4n3[B-](F)(F)[N+]3=C(c5ccc[nH]5)C=CC3=C4)cc21` [Amitriptyline-a-2-NB590], the “NanoBRET Fold Response” value (CCR7; tracer at 0.1μM) was 1.01, the “NanoBRET Fold Response” value (CCR7; tracer at 1μM) was 0.99 and the “NanoBRET Fold Response” value (FZD4; tracer at 0.1μM) was 1.01. The “NanoBRET Fold Response” value (FZD4; tracer at 1μM) was 1.01.

In the case of `CCOC(=O)c1cc(C#N)c(N2CCC(C(=O)NS(=O)(=O)Cc3ccccc3/C=C/C(=O)NCCNC(=O)CCc3ccc4n3[B-](F)(F)[N+]3=C(c5ccc[nH]5)C=CC3=C4)CC2)nc1C` [AZD1283-1-NB590], the “NanoBRET Fold Response” value (CCR7; CCR7, 0.1μM) is reported as 1.03, the “NanoBRET Fold Response” value (CCR7; CCR7, 1μM) is reported as 1.01 and the “NanoBRET Fold Response” value (FZD4; FZD4, 0.1μM) is reported as 1.03. The “NanoBRET Fold Response” value (FZD4; FZD4, 1μM) was 1.03.
